Read-outs that look alike come from different tables or passages of the source.
Assays:
[1] = system: M. bovis bovinus 8; assay type: in vivo, mice
[2] = system: M. bovis bovinus 8; assay type: in vivo, mice; remark: listed apart in the source
[3] = system: M. bovis bovinus 8; assay type: in vivo, mice; conditions: combination of the new treatment with the TB drug
[4] = in vivo; cited from earlier work
[5] = system: M. bovis bovinus 8; assay type: in vivo, rabbits; conditions: for Body weight ITE (%): 15 mg/kg
[6] = Stability during storage; assay type: physicochemical
[7] = system: M. tuberculosis Erdman; assay: Double serial dilution, growth of drug-sensitive test strain; assay type: cell-based; parameters: key to Degree of mycobacterial growth: primary inhibition of mycobacterial growth (++); conditions: for Degree of mycobacterial growth: 10^6 cells/ml
[8] = system: M. bovis bovinus 8; assay type: cell-based
[9] = system: M. bovis bovinus 8; parameters: species or system mice; conditions: mouse, in vivo
[10] = General toxicity; assay type: in vivo
[11] = system: M. tuberculosis “Academia”; assay: Double serial dilution, growth of drug-sensitive test strain; assay type: cell-based; parameters: key to Degree of mycobacterial growth: primary inhibition of mycobacterial growth (++)
[12] = system: M. tuberculosis H37Rv; assay: as above; assay type: cell-based; parameters: key to Degree of mycobacterial growth: primary inhibition of mycobacterial growth (++)
[13] = system: gram-positive and gram-negative microorganisms; assay type: cell-based
[14] = Allergenic, immunotoxic and mutagenic properties
[15] = system: Mycobacteria tuberculosis; assay: Tuberculostatic activity compared with the prototype drug; conditions: in comparison with the prototype drug
[16] = Embryo toxicity, teratogenicity and reproductive function; assay type: in vivo, animals
[17] = TB drug combined with the new treatment (20 mg/kg, per os) vs TB drug monotherapy, mice, 42 days
[18] = TB drug combined with the new treatment (20 mg/kg, per os) vs TB drug monotherapy, mice, 42 days of treatment
[19] = new treatment in combination with the TB drug, compared to monotherapy with the new treatment alone
[20] = rabbits, 15 mg/kg per os, vs infection control
[21] = 3.125 μg/ml in medium, 10^6 cells/ml

NCC[C@H](O)C(=O)N[C@@H]1C[C@H](N)[C@@H](O[C@H]2O[C@H](CN)[C@@H](O)[C@H](O)[C@H]2O)[C@H](O)[C@H]1O[C@H]1O[C@H](CO)[C@@H](O)[C@H](N)[C@H]1O [Amycacin, amycacin]
decrease in the coefficient of liver weight ([1]; mouse, in vivo): 34.6%
decrease in the index of lung damage ([1]; mouse, in vivo): 1.8%
effect of combination on therapeutic effectiveness, in words ([1]; mouse, in vivo): increased the therapeutic effectiveness
increase in therapeutic effectiveness (average of indices of organ damage) ([1]; mouse, in vivo): 11.34%
Scored sum of area: Breathing lung tissue ([2]; mouse, in vivo): 17.7
Scored sum of area: Dense lymphocytic infiltrate ([2]; mouse, in vivo): 3.12
Scored sum of area: Desquamative pneumonia ([2]; mouse, in vivo): 2.94
Scored sum of area: Polymorpho cellular infiltrate ([2]; mouse, in vivo): 0
Scored sum of area: Total lung tissue ([2]; mouse, in vivo): 23.76
improvement of the indices of lung damage (morphological) ([2]; mouse, in vivo): 2.56%

CC[C@@H](CO)NCCN[C@@H](CC)CO [Ethambutol, ethambutol]
therapeutic effectiveness of the combination, in words [3]: weak therapeutic effectiveness
decrease in CFU levels in the spleen [1, 17]: 33.3%
decrease in coefficient of spleen weight [1, 17]: 22.1%
decrease in the coefficient of liver weight [1, 17]: 8.9%
increase in the index of lung damage [1, 17]: 4.0%
increase in the index of lung weight [1, 17]: 3.1%
increase in therapeutic effectiveness (average of indices of organ damage) [1, 18]: 11.44%
effect of combination on therapeutic effectiveness, in words [1, 19]: increased the therapeutic effectiveness
Scored sum of area: Breathing lung tissue ([2]; mice, 42 days of treatment): 9.78
Scored sum of area: Dense lymphocytic infiltrate ([2]; mice, 42 days of treatment): 6.8
Scored sum of area: Desquamative pneumonia ([2]; mice, 42 days of treatment): 6.93
Scored sum of area: Polymorpho cellular infiltrate ([2]; mice, 42 days of treatment): 0.27
Scored sum of area: Total lung tissue ([2]; mice, 42 days of treatment): 23.78

NNC(=O)c1ccncc1 [Isoniazid, isonicotinic acid hydrazide]
decrease in CFU levels in the spleen [1, 17]: 25%
decrease in the coefficient of liver weight [1, 17]: 3.6%
increase in therapeutic effectiveness (average of indices of organ damage) [1, 18]: 13.9%
effect of combination on therapeutic effectiveness, in words [1, 19]: increased the therapeutic effectiveness
Scored sum of area: Breathing lung tissue ([2]; mice, 42 days of treatment): 17.5
Scored sum of area: Dense lymphocytic infiltrate ([2]; mice, 42 days of treatment): 1.59
Scored sum of area: Desquamative pneumonia ([2]; mice, 42 days of treatment): 3.52
Scored sum of area: Polymorpho cellular infiltrate ([2]; mice, 42 days of treatment): 0.86
Scored sum of area: Total lung tissue ([2]; mice, 42 days of treatment): 23.47
LD50 [4]: 150 mg/kg
Body weight % of initial ([5]; rabbits, 15 mg/kg per os): −6.99%
Lethality % of initial number ([5]; rabbits, 15 mg/kg per os): 0%
Lethality ITE (%) [5, 20]: +100.0%
Body weight ITE (%) [5, 20]: +74.67%
Body weight ITE (%) ([5]; rabbits, 15 mg/kg per os, vs infection control, listed as isoniazid): 74.67%

CC1COc2c(N3CCN(C)CC3)c(F)cc3c(=O)c(C(=O)O)cn1c23 (centres unmarked) [Ofloxacin]
decrease in indices (of therapeutic effectiveness), range over indices [1, 17]: 4.65% to 11.9
increase in the index of lung damage [1, 17]: 2.6%
decrease in therapeutic effectiveness [1, 18]: 6.2%
Scored sum of area: Breathing lung tissue ([2]; mice, 42 days of treatment): 7.32
Scored sum of area: Dense lymphocytic infiltrate ([2]; mice, 42 days of treatment): 6.32
Scored sum of area: Desquamative pneumonia ([2]; mice, 42 days of treatment): 10.49
Scored sum of area: Polymorpho cellular infiltrate ([2]; mice, 42 days of treatment): 0.04
Scored sum of area: Total lung tissue ([2]; mice, 42 days of treatment): 24.17

CO[C@H]1/C=C/O[C@@]2(C)Oc3c(C)c(O)c4c(c3C2=O)C2=NC3(CCN(CC(C)C)CC3)NC2=C(NC(=O)/C(C)=C\C=C\[C@H](C)[C@H](O)[C@@H](C)[C@@H](O)[C@@H](C)[C@H](OC(C)=O)[C@@H]1C)C4=O [Rifabutin, rifabutin]
decrease in coefficient of lung weight [1, 17]: 12.4%
decrease in coefficient of spleen weight [1, 17]: 20.6%
increase in the coefficient of liver weight [1, 17]: 0.4%
increase in the index of lung damage [1, 17]: 7.4%
increase in therapeutic effectiveness (average of indices of organ damage) [1, 18]: 7.68%
effect of combination on therapeutic effectiveness, in words [1, 19]: increased the therapeutic effectiveness
Scored sum of area: Breathing lung tissue ([2]; mice, 42 days of treatment): 23.27
Scored sum of area: Dense lymphocytic infiltrate ([2]; mice, 42 days of treatment): 0.53
Scored sum of area: Desquamative pneumonia ([2]; mice, 42 days of treatment): 0.16
Scored sum of area: Polymorpho cellular infiltrate ([2]; mice, 42 days of treatment): 0
Scored sum of area: Total lung tissue ([2]; mice, 42 days of treatment): 23.96

CO[C@H]1/C=C/O[C@@]2(C)Oc3c(C)c(O)c4c(O)c(c(/C=N/N5CCN(C)CC5)c(O)c4c3C2=O)NC(=O)/C(C)=C\C=C\[C@H](C)[C@H](O)[C@@H](C)[C@@H](O)[C@@H](C)[C@H](OC(C)=O)[C@@H]1C [Rifampicin, rifampicin]
decrease in coefficient of lung weight [1, 17]: 18.2%
decrease in coefficient of spleen weight [1, 17]: 34.6%
decrease in the coefficient of liver weight [1, 17]: 1.6%
increase in CFU levels [1, 17]: 6.19%
increase in therapeutic effectiveness (average of indices of organ damage) [1, 18]: 9.66%
Scored sum of area: Breathing lung tissue ([2]; mice, 42 days of treatment): 19.65
Scored sum of area: Desquamative pneumonia ([2]; mice, 42 days of treatment): 1.94
Scored sum of area: Polymorpho cellular infiltrate ([2]; mice, 42 days of treatment): 0
Scored sum of area: Total lung tissue ([2]; mice, 42 days of treatment): 23.96

NC(=S)NN=Cc1ccncc1.[O-][Cl+3]([O-])([O-])O [new treatment]
time for which appearance, physical characteristics and biological properties are stable [6]: 3 years
Degree of mycobacterial growth ([7]; 0.19 μg/ml in medium): ++
Degree of mycobacterial growth ([7]; 0.39 μg/ml in medium): ++
Degree of mycobacterial growth ([7]; 0.78 μg/ml in medium): ++
MIC ([7]; M. tuberculosis Erdman): 3.125 µg/mL
complete inhibition (MIC) [8]: 1.56 µg/mL
concentration of primary inhibition of mycobacterial growth (++) [8]: 0.19 µg/mL
Body weight % of initial ([9]; 10 mg/kg): 81.9%
Lethality % ([9]; 10 mg/kg): 62.5%
Body weight % of initial ([9]; 20 mg/kg): 94.5%
Lethality % ([9]; 20 mg/kg): 25.0%
Body weight % of initial ([9]; 30 mg/kg): 92.6%
Lethality % ([9]; 30 mg/kg): 2.4%
toxicity relative to the prototype drug (lower) ([10]; in comparison with the prototype drug): 2.4 times
damage to vital organs and systems ([10]; in vivo): neither a significant structural and functional damage to vital organs and systems
toxicity, in words ([10]; in vivo): low toxic agent
Degree of mycobacterial growth [11, 21]: ++
MIC ([11]; M. tuberculosis “Academia”): 6.25 µg/mL
Degree of mycobacterial growth [12, 21]: ++
MIC ([12]; M. tuberculosis H37RV): 6.25 µg/mL
effect on the growth of gram-positive and gram-negative microorganisms [13]: did not affect the growth
allergenic properties [14]: no
immunotoxic properties [14]: no
mutagenic properties [14]: no
tuberculostatic activity relative to the prototype drug (higher) [15]: 200 times
Body weight % of initial ([5]; rabbit, in vivo, 20 mg/kg): −7.13%
Lethality % of initial number ([5]; rabbit, in vivo, 20 mg/kg): 0%
Lethality ITE (%) ([5]; rabbit, in vivo, 20 mg/kg): +100.0%
dose with teratogenic effect (non life-threatening skeletal malformations, delay in ossification, edema, subcutaneous hemorrhage) ([16]; administered during organogenesis, five times the therapeutic dose): 100 mg/kg
effect on the reproductive function and offspring development in animals ([16]; continued administration): no effect
alterations in placenta development and sex formation ([16]; in vivo): no alterations
embryo toxicity ([16]; mainly if administered during organogenesis): moderate embryo toxicity
